B1: Streptococcus agalactiae GAG-PTS EIIA^ΔHA (EIIA for unsaturated hyaluronan disaccharide) (natural protein)
chain: MIKIIIVAHGNFPDGILSSLELIAGHQEYVVGINFIAGMSSNDVRVALQREVIDFKEILVLTDLLGGTPFNVSSALSVEYTDKKIKVLSGLNLSMLMEAVLSRTMFEHVDDLVDKVITSSHEGIVDFSTCLATQTAEATFEGGI
notes: PTS EIIA component of the GAG genetic cluster, gene gbs1890, Streptococcus agalactiae (gbs = strain NEM316); 144 residues (Met1-Ile144); Leu131-Ile144 not seen in the crystal structure; Cloned between NdeI and XhoI of pET21b with a reverse primer without a stop codon, so a C-terminal vector-derived His tag is likely (surmised); No PDB id is printed for the structure solved here; also called …

Key:
[1] = biological target: T1, GAG-PTS (EIIABCD; phosphotransferase system for import of unsaturated hyaluronan disaccharide) (Streptococcus agalactiae, UniProt Q8DXF2+Q8DXF3); assay: PTS assay: pyruvate from phosphoenolpyruvate, lactate dehydrogenase-coupled NADH oxidation at […] nm, toluene-treated cells; assay type: cell-based; conditions: 10 mM sugar, 5 mM phosphoenolpyruvate, 5 mM MgCl2, 10 mM NaF, 0.1 M potassium phosphate pH 7.5, 37°C; EIIB-EIIC-EIID deletion mutant as control
T1 construct: gene SAG1899; native complex in toluene-permeabilized wild-type S. agalactiae cells; endogenous EI and HPr also required; EIIA dimer in crystal, 144 residues; with PTS mannose family transporter subunit IIA (EIIA)
T1 sequence (Q8DXF1 entry or part of it, one chain of several, further chain): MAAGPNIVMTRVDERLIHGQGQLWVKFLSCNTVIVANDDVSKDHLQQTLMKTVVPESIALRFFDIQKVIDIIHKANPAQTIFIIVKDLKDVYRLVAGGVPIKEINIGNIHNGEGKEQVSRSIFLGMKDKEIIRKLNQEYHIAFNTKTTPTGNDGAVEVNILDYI
T1 sequence (Q8DXF2 entry or part of it, one chain of several): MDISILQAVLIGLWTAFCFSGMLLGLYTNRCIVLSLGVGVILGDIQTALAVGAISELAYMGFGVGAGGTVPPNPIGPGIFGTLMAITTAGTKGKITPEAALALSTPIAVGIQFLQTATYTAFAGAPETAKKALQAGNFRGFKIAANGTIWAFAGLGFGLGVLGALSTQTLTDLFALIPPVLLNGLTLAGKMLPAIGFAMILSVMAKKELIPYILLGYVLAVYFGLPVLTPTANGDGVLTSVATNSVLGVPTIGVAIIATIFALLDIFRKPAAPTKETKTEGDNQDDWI
T1 sequence (Q8DXF3 entry or part of it, one chain of several): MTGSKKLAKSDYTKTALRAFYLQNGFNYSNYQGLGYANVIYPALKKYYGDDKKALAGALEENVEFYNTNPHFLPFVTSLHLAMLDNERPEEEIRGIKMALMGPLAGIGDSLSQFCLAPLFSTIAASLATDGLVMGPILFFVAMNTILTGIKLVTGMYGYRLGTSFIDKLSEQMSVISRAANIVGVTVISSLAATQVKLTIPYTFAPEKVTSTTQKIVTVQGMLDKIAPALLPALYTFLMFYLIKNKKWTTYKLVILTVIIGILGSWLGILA

[2] = biological target: the molecule itself; assay: crystal structure; sitting drop vapor diffusion, 20% PEG 3,350, 0.2 M sodium thiocyanate pH 6.9, 20°C; space group P1, six molecules in the asymmetric unit; biological unit judged a dimer with PISA software

Molecule	PTS assay: pyruvate from phosphoenolpyruvate, lactate dehydrogenase-coupled NADH [1]	stoichiometry N [2]
CC(=O)N[C@H]1C(O)O[C@H](CO)[C@@H](O)[C@@H]1O[C@@H]1OC(C(=O)O)=C[C@H](O)[C@H]1O (some centres unmarked) [ΔHA, unsaturated hyaluronan disaccharide]	S. agalactiae imports unsaturated hyaluronan disaccharide using the GAG-PTS encoded in the GAG genetic cluster	
B1		2

From paper PMC6837340, “Streptococcal phosphotransferase system imports unsaturated hyaluronan disaccharide derived from host extracellular matrices” (PLoS ONE, 2019)
